We go through 16 compounds from patent publication US10100372B2, “Recombinant RSV reporter virus” (priority 2014, dated 2018).

One series has as its system recRSV A2-L19F-renilla. Nature of the series: microbe, parasite or virus in culture. Format: cell-based. Particulars: BEAS-2B, 95% confidence interval in parentheses, inactive = less than 50% reduction of mean reporter signal.
The nature of a further series: in vitro. Particulars: human.
For series [1], the system named is recIAV WSN-NanoLuc.
Series [2] deals with recRSV A2-L19FD489E-fireSMASh. Particulars: BEAS-2B, 95% confidence interval in parentheses, inactive = less than 50% reduction of mean reporter signal.
The test system of the next series is BEAS-2B cells. Particulars: highest concentration 10 μM; tox = less than 50% cell viability after 44 hours at ≤10 μM.
For series [3], the system named is recIAV WSN-NanoLuc. Briefly: microbe, parasite or virus in culture. The series is classed as cell-based, influenza virus IAV/WSN/33 (H1N1). Particulars: for inhibition at 5 µM: unidentified influenza virus, WSN, BEAS-2B, read-out: % Inhibition (anti-IAV).
In series [4] the test system is recRSV A2-L19FD489E-fireSMASh. Briefly: microbe, parasite or virus in culture. The series is classed as cell-based, Respiratory Syncytial Virus. The settings on record: 384-well, four replicate screens, mean ± SD, BEAS-2B co-infection; for inhibition at 5 µM: human respiratory syncytial virus, read-out: % Inhibition (anti-RSV).
[5] abbreviates: BEAS-2B, 95% confidence interval in parentheses, inactive = less than 50% reduction of mean reporter signal.

*1 amine or outer side, *2 acyl side, *3 side chain or, on linkers, in order; H or OH if unused. Where a SMILES comes first, the peptide text is derived from it. Bridges are numbered along the chain shown (N, C = ends). Roman numbers before positions name the chains, in order. [ ]: non-standard residue; d: D form. Actinocin(9to1) = Cc1c2oc3c(C)ccc(C(=O)[*:1])c3nc-2c(C(=O)[*:2])c(N)c1=O; NMeV = CN[C@H](C(=O)O)C(C)C; Sar = CNCC(=O)O

In the case of `COc1cc2nc(N3CCCN(C)CC3)nc(NC3CCN(Cc4ccccc4)CC3)c2cc1OC` [BIX 01294], the “EC50 RSV A2-L19F-renilla” value in the series on recRSV A2-L19F-renilla was “inactive^e”. In the series “in vitro”, this compound came in with a CC50 greater than 10 µM. Also, the “EC50 IAV WSN-nanoLuc” value in the series with recIAV WSN-NanoLuc [1] (setting [5]) is “inactive^e”. Besides, in series [2], the “EC50 RSV A2-L19FD489E-fireSMASh” value was “inactive^e”.
For `c1cnc2c(c1)ccc1cccnc12` [Phenanthroline], the CC50 in “in vitro” was 2.4 µM.
In the case of `CNc1ccc2oc(C[C@H]3O[C@@]4(CC[C@H]3C)O[C@H]([C@H](C)C(=O)c3ccc[nH]3)[C@H](C)C[C@H]4C)nc2c1C(=O)O` [Calcimycin], the “CC50 (PrestoBlue cell viability)” value in the series on BEAS-2B cells is reported as “tox^d”.
Turning to `CC(=O)OC[C@H]1O[C@@H]([S-])[C@H](OC(C)=O)[C@@H](OC(C)=O)[C@@H]1OC(C)=O.CCP(CC)CC.[Au+]` [Auranofin], the “CC50 (PrestoBlue cell viability)” value with BEAS-2B cells is reported as “tox^d”.
One may read the inhibition as the drop in the measured response relative to a control, in per cent. As to `CC[C@]1(O)C[C@H]2CN(CCc3c([nH]c4ccccc34)[C@@](C(=O)OC)(c3cc4c(cc3OC)N(C=O)[C@H]3[C@@](O)(C(=O)OC)[C@H](OC(C)=O)[C@]5(CC)C=CCN6CC[C@]43[C@@H]65)C2)C1` [Vincristine], the inhibition at 5 µM is 50 ± 2.9% with recIAV WSN-NanoLuc [3] and 79 ± 6.9% in series [4].
Take `CCOC(=O)C1=C(C)NC(C)=C(C(=O)OC)C1c1cccc([N+](=O)[O-])c1` (stereo not shown) [Nitrendipine]: the “EC50 RSV A2-L19F-renilla” value in the series on recRSV A2-L19F-renilla was “inactive^e”. In addition, the CC50 in “in vitro” is greater than 10 µM. Further, in the series with recIAV WSN-NanoLuc [1] (setting [5]), the “EC50 IAV WSN-nanoLuc” value was “inactive^e”. In addition, in series [2], the “EC50 RSV A2-L19FD489E-fireSMASh” value was “inactive^e”.
On to `CN(Cc1cnc2nc(N)nc(N)c2n1)c1ccc(C(=O)N[C@@H](CCC(=O)O)C(=O)O)cc1` [Methotrexate], for which the values for the inhibition at 5 µM (in the series on recIAV WSN-NanoLuc [3]; in series [4]) were 100 ± 0.6% and 99 ± 0.5%, respectively.
For `Cn1nnc2c(C(N)=O)ncn2c1=O` [Temozolomide] the same measures were 55 ± 3.2% and 96 ± 1.3%.
Take `COc1cccc2c1C(=O)c1c(O)c3c(c(O)c1C2=O)C[C@@](O)(C(=O)CO)C[C@@H]3O[C@H]1C[C@H](N)[C@@H](O)[C@H](C)O1` [Epirubicin]: the results for the inhibition at 5 µM (in the series with recIAV WSN-NanoLuc [3]; in series [4]) were 75 ± 3.1% and 62 ± 6.3%, respectively.
For the compound `COC(=O)C[C@](O)(CCCC(C)(C)O)C(=O)O[C@@H]1C(OC)=C[C@]23CCCN2CCc2cc4c(cc2[C@H]13)OCO4` [Homoharringtonine], the inhibition at 5 µM worked out at 90 ± 2.6% in the series on recIAV WSN-NanoLuc [3] and 98 ± 0.5% in series [4].
Usually EC50 stands for the concentration that produces a half-maximal response. Take Stattic: the EC50 is 15.1 µM in the series on recRSV A2-L19F-renilla (read-out: EC50 RSV A2-L19F-renilla); 3.3 µM in the series with recIAV WSN-NanoLuc [1] (read-out: EC50 IAV WSN-nanoLuc, BEAS-2B, 95% confidence interval in parentheses, inactive = less than 50% reduction of mean reporter signal); 5.9 µM in series [2] (read-out: EC50 RSV A2-L19FD489E-fireSMASh). The “SI [CC50/EC50] IAV” value with recIAV WSN-NanoLuc [1] (SIIAV) is given as “SIIAV 3”.
With `Cc1nc2ccc(CN(C)c3ccc(C(=O)N[C@@H](CCC(=O)O)C(=O)O)s3)cc2c(=O)[nH]1` [Raltitrexed], the inhibition at 5 µM was 60 ± 6.5% in the series on recIAV WSN-NanoLuc [3] and 91 ± 1% in series [4].
As for `Nc1nc(N)c2nc(-c3ccccc3)c(N)nc2n1` [Triamterene], the “EC50 RSV A2-L19F-renilla” value in the series on recRSV A2-L19F-renilla was “inactive^e”. The CC50 in the series “in vitro” was greater than 10 µM. Further, the “EC50 IAV WSN-nanoLuc” value in the series on recIAV WSN-NanoLuc [1] (setting [5]) is “inactive^e”. Further, the “EC50 RSV A2-L19FD489E-fireSMASh” value in series [2] was “inactive^e”.
As to `CN(CCOc1ccc(CC2SC(=O)NC2=O)cc1)c1ccccn1` (stereo not shown) [Rosiglitazone], the inhibition at 5 µM came to 35 ± 5% with recIAV WSN-NanoLuc [3] and 85 ± 5.8% in series [4].
For `COc1cc([C@@H]2c3cc4c(cc3[C@@H](O[C@@H]3O[C@@H]5CO[C@@H](C)O[C@H]5[C@H](O)[C@H]3O)[C@H]3COC(=O)[C@H]23)OCO4)cc(OC)c1O` [Etoposide] the same measures were 56 ± 5.6% and 80 ± 6.6%.
For `Cc1c2oc3c(C)ccc(C(=O)N[C@@H]4C(=O)N[C@H](C(C)C)C(=O)N5CCC[C@H]5C(=O)N(C)CC(=O)N(C)[C@@H](C(C)C)C(=O)O[C@@H]4C)c3nc-2c(C(=O)N[C@@H]2C(=O)N[C@H](C(C)C)C(=O)N3CCC[C@H]3C(=O)N(C)CC(=O)N(C)[C@@H](C(C)C)C(=O)O[C@@H]2C)c(N)c1=O` [Actinomycin D] (I: T[dV]P[Sar][NMeV] / II: T[dV]P[Sar][NMeV]; ester I:1-I:C, II:1-II:C; linker I:N-II:N via Actinocin(9to1)), in the series with recIAV WSN-NanoLuc [3] (5 μM), the “% Inhibition (anti-IAV)” value is listed as 104 ± 1.5%. In addition, the “% Inhibition (anti-RSV)” value in series [4] (5 μM) turned out to be 52 ± 9.6%.
